Test results: PubChem BioAssay (NCI)
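48-hour exposure; five concentrations; linearly interpolated endpoints. TGI: total growth inhibition.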

Key:
Experiment in all cases: NCI tumour cell line growth inhibition, 48 h
HOP-18 NSCLC = test system: HOP-18 NSCLC
KM20L2 colon = test system: KM20L2 colon
DMS 273 small cell lung = test system: DMS 273 small cell lung
LXFL 529 NSCLC = test system: LXFL 529 NSCLC
P388 leukemia = test system: P388 leukemia
XF 498 CNS = test system: XF 498 CNS
SN12K1 renal = test system: SN12K1 renal
P388/ADR leukemia = test system: P388/ADR leukemia

Compound | TGI (HOP-18 NSCLC) | TGI (KM20L2 colon) | TGI (DMS 273 small cell lung) | TGI (LXFL 529 NSCLC) | TGI (P388 leukemia) | TGI (XF 498 CNS) | TGI (SN12K1 renal) | TGI (P388/ADR leukemia)
Cc1ccc2ccc3ccc(C)nc3c2n1 | > 100 µM | > 100 µM | > 100 µM | > 100 µM |  |  |  | 
Nc1cccc2c1C1=NNC(=O)CC1C2 (stereo not drawn) |  | > 100 µM | > 100 µM |  | > 100 µM | > 100 µM | > 100 µM | 
Cc1c2cc[n+](C)cc2c(C)c2c1[nH]c1ccc(Cl)cc12 | 22.7 µM | 46 µM | 35.7 µM | 2.59 µM |  |  |  | 
C=Cc1cc(OC)c2c(c1)c(=O)oc1c2cc(OC)c2c(O)ccc(C3OC(C)C(O)C(C)(O)C3O)c21 (stereo not drawn) | 0.392 µM | 0.161 µM | 0.139 µM |  | 0.529 µM | 0.0373 µM | 0.131 µM | 0.804 µM
O=C(Nc1cccc([N+](=O)[O-])c1)C(=O)C(C(=O)c1ccccc1F)C1OC(=O)C2C=CC=CC21 (stereo not drawn) |  | > 100 µM | > 100 µM | > 100 µM |  | > 100 µM |  | 
N#CCCOCN(CO)c1nc(N(CO)COCCC#N)nc(N(CO)COCCC#N)n1 | 59.6 µM | 61.5 µM | 32.8 µM | 42.5 µM |  | 31.5 µM |  | 
CC(=O)N1CC(=O)NC1=S |  | > 100 µM | > 100 µM | > 100 µM |  | > 100 µM |  | 
